Where “and” joins values, the source holds several entries; their conditions need not be identical. Identical values can stand only once. Toxic doses and inconclusive results are not listed. Rule as the data show it: active = T/C of 150% or more; inactive = T/C below 125%.
Tested on: L1210 leukemia ip in BDF1 mice, survival T/C
Assay: NCI In Vivo Anticancer Drug Screen. Data for tumor model L1210 Leukemia (intraperitoneal) in B6D2F1 (BDF1) mice
Details: endpoint: mean survival time, higher = longer survival
Procedure, shortened: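 Ratio derived from survival: compound-dosed mice over vehicle-dosed mice, all bearing a transplantable tumor.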

[1] = dose: 12.5 mg/kg/injection, schedule: Q01DX009 (ip), vehicle: Klucel (hydroxypropylcellulose) (HPC)
[2] = dose: 25.0 mg/kg/injection, schedule: Q01DX009 (ip), vehicle: Klucel (hydroxypropylcellulose) (HPC)
[3] = dose: 50.0 mg/kg/injection, schedule: Q01DX009 (ip), vehicle: Klucel (hydroxypropylcellulose) (HPC)
[4] = dose: 100.0 mg/kg/injection, schedule: Q01DX009 (ip), vehicle: Klucel (hydroxypropylcellulose) (HPC)
[5] = dose: 200.0 mg/kg/injection, schedule: Q01DX009 (ip), vehicle: Klucel (hydroxypropylcellulose) (HPC)
[6] = dose: 100.0 mg/kg/injection, schedule: Q01DX001 (ip), vehicle: saline
[7] = dose: 200.0 mg/kg/injection, schedule: Q01DX001 (ip), vehicle: saline
[8] = dose: 400.0 mg/kg/injection, schedule: Q01DX001 (ip), vehicle: saline
[9] = dose: 100.0 mg/kg/injection, schedule: Q04DX002 (ip), vehicle: saline
[10] = dose: 200.0 mg/kg/injection, schedule: Q04DX002 (ip), vehicle: saline
[11] = dose: 100.0 mg/kg/injection, schedule: Q01DX001 (ip), vehicle: Klucel (hydroxypropylcellulose) (HPC)
[12] = dose: 200.0 mg/kg/injection, schedule: Q01DX001 (ip), vehicle: Klucel (hydroxypropylcellulose) (HPC)
[13] = dose: 400.0 mg/kg/injection, schedule: Q01DX001 (ip), vehicle: Klucel (hydroxypropylcellulose) (HPC)
[14] = dose: 100.0 mg/kg/injection, schedule: Q01DX001 (ip), vehicle: carboxymethylcellulose (CMC)
[15] = dose: 200.0 mg/kg/injection, schedule: Q01DX001 (ip), vehicle: carboxymethylcellulose (CMC)
[16] = dose: 400.0 mg/kg/injection, schedule: Q01DX001 (ip), vehicle: carboxymethylcellulose (CMC)

Measured: T/C

COC(=O)c1nc(Cl)nc(S(C)(=O)=O)c1Cl
inactive: [1] 109 % of control | [2] 103 % of control | [3] 103 % of control and 89 % of control | [4] 92 % of control

CCCCCCCCCCC(=O)N(CC)CC
inactive: dose: 100.0 mg/kg/injection, schedule: Q01DX009 (ip), vehicle: carboxymethylcellulose (CMC) 97 % of control and 92 % of control | dose: 100.0 mg/kg/injection, schedule: Q04DX002 (ip), vehicle: carboxymethylcellulose (CMC) 94 % of control | dose: 200.0 mg/kg/injection, schedule: Q01DX009 (ip), vehicle: carboxymethylcellulose (CMC) 97 % of control and 100 % of control | dose: 200.0 mg/kg/injection, schedule: Q04DX002 (ip), vehicle: carboxymethylcellulose (CMC) 96 % of control | dose: 400.0 mg/kg/injection, schedule: Q01DX009 (ip), vehicle: carboxymethylcellulose (CMC) 96 % of control | dose: 400.0 mg/kg/injection, schedule: Q04DX002 (ip), vehicle: carboxymethylcellulose (CMC) 100 % of control

CC[C@H](CC[C@@H](C)[C@H]1CC[C@H]2[C@@H]3CC[C@H]4C[C@@H](O)CC[C@]4(C)[C@H]3CC[C@]12C)C(C)C
inactive: dose: 100.0 mg/kg/injection, schedule: Q01DX001 (ip), vehicle: water 90 % of control | dose: 200.0 mg/kg/injection, schedule: Q01DX001 (ip), vehicle: water 91 % of control | dose: 400.0 mg/kg/injection, schedule: Q01DX001 (ip), vehicle: water 93 % of control

CC(C)c1ccc(NCN2C(=O)c3ccccc3C2=O)cc1
inactive: [4] 100 % of control | [5] 103 % of control | dose: 400.0 mg/kg/injection, schedule: Q01DX009 (ip), vehicle: Klucel (hydroxypropylcellulose) (HPC) 101 % of control

CCN(CC)c1ccc(N=C2C=C(C(=O)Nc3ccc(S(C)(=O)=O)cc3)C(=O)c3ccccc32)c(C)c1
inactive: [6] 92 % of control | [7] 96 % of control | [8] 96 % of control

CCSC(SCC)C(N)C(O)C(O)C(O)CO (stereo not given)
inactive: dose: 50.0 mg/kg/injection, schedule: Q04DX002 (ip), vehicle: saline 103 % of control | [9] 103 % of control | [10] 109 % of control

O=c1[nH]c2sccc2c(=O)n1O
inactive: [11] 106 % of control | [12] 97 % of control | [13] 97 % of control

CC1(c2ccccc2)CC(c2ccccc2)=C(C#N)C(=O)N1 (stereo not given)
inactive: [6] 98 % of control | [7] 91 % of control | [8] 104 % of control

COC(=O)CCCCCCCCC(C)c1ccc(C(C)=O)cc1 (stereo not given)
inactive: dose: 100.0 mg/kg/injection, schedule: Q01DX009 (ip), vehicle: saline with Tween-80 95 % of control | dose: 100.0 mg/kg/injection, schedule: Q04DX003 (ip), vehicle: saline with Tween-80 99 % of control | dose: 200.0 mg/kg/injection, schedule: Q01DX009 (ip), vehicle: saline with Tween-80 87 % of control | dose: 200.0 mg/kg/injection, schedule: Q04DX003 (ip), vehicle: saline with Tween-80 95 % of control | dose: 400.0 mg/kg/injection, schedule: Q01DX009 (ip), vehicle: saline with Tween-80 96 % of control | dose: 400.0 mg/kg/injection, schedule: Q04DX003 (ip), vehicle: saline with Tween-80 89 % of control

CC1(C)C=C(C(N)=O)C(C)(C)N1O
inactive: dose: 50.0 mg/kg/injection, schedule: Q01DX009 (ip), vehicle: other 98 % of control | dose: 100.0 mg/kg/injection, schedule: Q01DX009 (ip), vehicle: other 101 % of control | dose: 200.0 mg/kg/injection, schedule: Q01DX009 (ip), vehicle: other 95 % of control

O=NN1CCCCCC1C(=O)O (stereo not given)
inactive: [6] 108 % of control | [7] 102 % of control

CCOc1nc(N)nc(N)c1-c1ccccc1
inactive: dose: 100.0 mg/kg/injection, schedule: Q04DX002 (ip), vehicle: saline with Tween-80 111 % of control | dose: 200.0 mg/kg/injection, schedule: Q04DX002 (ip), vehicle: saline with Tween-80 96 % of control | dose: 400.0 mg/kg/injection, schedule: Q04DX002 (ip), vehicle: saline with Tween-80 100 % of control

COc1ccccc1N1C(N)=NC(N)=NC1(C)C
inactive: dose: 25.0 mg/kg/injection, schedule: Q01DX009 (ip), vehicle: saline 104 % of control | dose: 25.0 mg/kg/injection, schedule: Q04DX003 (ip), vehicle: saline 113 % of control | dose: 50.0 mg/kg/injection, schedule: Q01DX009 (ip), vehicle: saline 98 % of control and 100 % of control | dose: 50.0 mg/kg/injection, schedule: Q04DX003 (ip), vehicle: saline 97 % of control | dose: 100.0 mg/kg/injection, schedule: Q04DX003 (ip), vehicle: saline 92 % of control

C=C(Cl)CSC(C)(C)C
inactive: dose: 100.0 mg/kg/injection, schedule: Q01DX009 (ip), vehicle: saline 118 % of control | [9] 100 % of control | dose: 200.0 mg/kg/injection, schedule: Q01DX009 (ip), vehicle: saline 100 % of control | [10] 97 % of control | dose: 400.0 mg/kg/injection, schedule: Q01DX009 (ip), vehicle: saline 93 % of control | dose: 400.0 mg/kg/injection, schedule: Q04DX002 (ip), vehicle: saline 93 % of control

Cc1nc(SC(=N)N)nc2c1CCO2
inactive: [6] 96 % of control | [7] 97 % of control | [8] 88 % of control

Cc1cc(C)c(C(=O)C=O)c(C)c1
inactive: [3] 101 % of control | [4] 100 % of control | dose: 100.0 mg/kg/injection, schedule: Q04DX003 (ip), vehicle: Klucel (hydroxypropylcellulose) (HPC) 104 % of control | [5] 95 % of control | dose: 200.0 mg/kg/injection, schedule: Q04DX003 (ip), vehicle: Klucel (hydroxypropylcellulose) (HPC) 107 % of control

[Cl][Hg][CH2]CC1CC=CCC1 (stereo not given)
inactive: dose: 3.13 mg/kg/injection, schedule: Q01DX009 (ip), vehicle: saline sonified 92 % of control | dose: 6.25 mg/kg/injection, schedule: Q01DX009 (ip), vehicle: saline sonified 94 % of control | dose: 6.25 mg/kg/injection, schedule: Q04DX003 (ip), vehicle: Klucel (hydroxypropylcellulose) (HPC) 98 % of control | dose: 12.5 mg/kg/injection, schedule: Q01DX009 (ip), vehicle: saline sonified 100 % of control | dose: 12.5 mg/kg/injection, schedule: Q04DX003 (ip), vehicle: Klucel (hydroxypropylcellulose) (HPC) 87 % of control

C[N+](C)(C)Cc1ccccc1C=C(c1ccccc1)c1ccccc1
inactive: [1] 98 % of control | [2] 104 % of control | dose: 25.0 mg/kg/injection, schedule: Q04DX003 (ip), vehicle: Klucel (hydroxypropylcellulose) (HPC) 101 % of control | [3] 98 % of control | dose: 50.0 mg/kg/injection, schedule: Q04DX003 (ip), vehicle: Klucel (hydroxypropylcellulose) (HPC) 88 % of control

Nc1ccc2c(c1)/C(=N/O)c1cc(Br)ccc1-2
inactive: [14] 110 % of control | [15] 102 % of control | [16] 100 % of control

O=C1c2ccccc2-c2c3c(cc4ccnc1c24)OCO3
inactive: [11] 93 % of control | [12] 96 % of control | [13] 100 % of control

O=[N+]([O-])c1ccc2c(c1)Cc1cc(O)c(I)cc1-2
inactive: [14] 101 % of control | [15] 101 % of control | [16] 97 % of control

O=C(O)C1C2C=Cc3ccccc3C21 (stereo not given)
inactive: [8] 90 % of control

C/C(=N/Nc1ccc([N+](=O)[O-])cc1[N+](=O)[O-])C(C)(C)C
inactive: dose: 25.0 mg/kg/injection, schedule: Q04DX002 (ip), vehicle: Klucel (hydroxypropylcellulose) (HPC) 87 % of control | dose: 50.0 mg/kg/injection, schedule: Q04DX002 (ip), vehicle: Klucel (hydroxypropylcellulose) (HPC) 93 % of control | dose: 100.0 mg/kg/injection, schedule: Q04DX002 (ip), vehicle: Klucel (hydroxypropylcellulose) (HPC) 101 % of control and 90 % of control | dose: 200.0 mg/kg/injection, schedule: Q04DX002 (ip), vehicle: Klucel (hydroxypropylcellulose) (HPC) 97 % of control | dose: 400.0 mg/kg/injection, schedule: Q04DX002 (ip), vehicle: Klucel (hydroxypropylcellulose) (HPC) 93 % of control

CN(C)N1C(=O)CC2(CCC(C(C)(C)C)CC2)CC1=O
inactive: dose: 50.0 mg/kg/injection, schedule: Q01DX001 (ip), vehicle: carboxymethylcellulose (CMC) 109 % of control | [14] 95 % of control | [15] 104 % of control | [16] 104 % of control

From PubChem BioAssay AID248 (DTP/NCI, 2004)
